# Test results published in ChEMBL document CHEMBL4842376, “Design, synthesis and biological evaluation of novel hybrids targeting mTOR and HDACs for potential treatment of hepatocellular carcinoma” (Eur J Med Chem, 2021).
# Activity calls are given as the source filed them. The rule behind the calls is not given here.
# What was measured:
# [1] = target: T1, Serine/threonine-protein kinase mTOR (Homo sapiens, UniProt P42345); test: Inhibition of mTOR (unknown origin) at 1 uM using U-Light-4E-BP1 peptide as a substrate in the presence of ATP incubated for 30 mins by Lance ultra assay relative to control
# HepG2 [2] = test: Induction of cell cycle arrest in human HepG2 cells assessed as accumulation of cells in G0/G1 phase at 6 uM measured after 24 hrs by propidium iodide staining based flow cytometry analysis (reference value: 52.7 to 63.2%); type: functional
# [3] = target: Histone deacetylase (Homo sapiens) (UniProt Q13547+O15379+Q9UBN7+Q92769+Q9UQL6+Q8WUI4+Q9BY41+Q96DB2+P56524+Q9UKV0+Q969S8); test: Inhibition of HDAC in human HepG2 cells assessed as upregulation of histone H3 acetylation at 6 uM measured after 24 hrs by western blot analysis; type: cell-based
# HepG2 [4] = test: Induction of apoptosis in human HepG2 cells assessed as necrotic cells at 5 uM measured after 24 hrs by Annexin V-FITC/PI staining based flow cytometry analysis (Rvb= 0.082%); type: functional
# HepG2 [5] = test: Induction of cell cycle arrest in human HepG2 cells assessed as accumulation of cells in G2/M phase at 1.5 uM measured after 24 hrs by propidium iodide staining based flow cytometry analysis (Rvb= 17.8 to 18.5%); type: functional
# HepG2 [6] = test: Induction of apoptosis in human HepG2 cells assessed as live cells at 5 uM measured after 24 hrs by Annexin V-FITC/PI staining based flow cytometry analysis (Rvb= 84.6%); type: functional
# HepG2 [7] = test: Induction of apoptosis in human HepG2 cells assessed as live cells at 10 uM measured after 24 hrs by Annexin V-FITC/PI staining based flow cytometry analysis (Rvb= 84.6%); type: functional
# Histone deacetylase 1 = Histone deacetylase 1 (Homo sapiens, UniProt Q13547); test: Inhibition of HDAC1 (unknown origin) using Ac-peptide as a substrate pretreated for 15 mins followed by substrate addition
# Bel-7402 = test: Antiproliferative activity against human Bel-7402 cells assessed as inhibition of cell growth measured after 72 hrs by MTT assay; type: functional, cell-based; conditions: Bel-7402, 72 h
# HepG2 [8] = test: Induction of apoptosis in human HepG2 cells assessed as necrotic cells at 2.5 uM measured after 24 hrs by Annexin V-FITC/PI staining based flow cytometry analysis (Rvb= 0.082%); type: functional
# [9] = target: T2, Protein deacetylase HDAC6 (Homo sapiens, UniProt Q9UBN7); test: Inhibition of HDAC6 (unknown origin) using Ac-peptide as a substrate pretreated for 15 mins followed by substrate addition
# T2 sequence (Q9UBN7 whole entry): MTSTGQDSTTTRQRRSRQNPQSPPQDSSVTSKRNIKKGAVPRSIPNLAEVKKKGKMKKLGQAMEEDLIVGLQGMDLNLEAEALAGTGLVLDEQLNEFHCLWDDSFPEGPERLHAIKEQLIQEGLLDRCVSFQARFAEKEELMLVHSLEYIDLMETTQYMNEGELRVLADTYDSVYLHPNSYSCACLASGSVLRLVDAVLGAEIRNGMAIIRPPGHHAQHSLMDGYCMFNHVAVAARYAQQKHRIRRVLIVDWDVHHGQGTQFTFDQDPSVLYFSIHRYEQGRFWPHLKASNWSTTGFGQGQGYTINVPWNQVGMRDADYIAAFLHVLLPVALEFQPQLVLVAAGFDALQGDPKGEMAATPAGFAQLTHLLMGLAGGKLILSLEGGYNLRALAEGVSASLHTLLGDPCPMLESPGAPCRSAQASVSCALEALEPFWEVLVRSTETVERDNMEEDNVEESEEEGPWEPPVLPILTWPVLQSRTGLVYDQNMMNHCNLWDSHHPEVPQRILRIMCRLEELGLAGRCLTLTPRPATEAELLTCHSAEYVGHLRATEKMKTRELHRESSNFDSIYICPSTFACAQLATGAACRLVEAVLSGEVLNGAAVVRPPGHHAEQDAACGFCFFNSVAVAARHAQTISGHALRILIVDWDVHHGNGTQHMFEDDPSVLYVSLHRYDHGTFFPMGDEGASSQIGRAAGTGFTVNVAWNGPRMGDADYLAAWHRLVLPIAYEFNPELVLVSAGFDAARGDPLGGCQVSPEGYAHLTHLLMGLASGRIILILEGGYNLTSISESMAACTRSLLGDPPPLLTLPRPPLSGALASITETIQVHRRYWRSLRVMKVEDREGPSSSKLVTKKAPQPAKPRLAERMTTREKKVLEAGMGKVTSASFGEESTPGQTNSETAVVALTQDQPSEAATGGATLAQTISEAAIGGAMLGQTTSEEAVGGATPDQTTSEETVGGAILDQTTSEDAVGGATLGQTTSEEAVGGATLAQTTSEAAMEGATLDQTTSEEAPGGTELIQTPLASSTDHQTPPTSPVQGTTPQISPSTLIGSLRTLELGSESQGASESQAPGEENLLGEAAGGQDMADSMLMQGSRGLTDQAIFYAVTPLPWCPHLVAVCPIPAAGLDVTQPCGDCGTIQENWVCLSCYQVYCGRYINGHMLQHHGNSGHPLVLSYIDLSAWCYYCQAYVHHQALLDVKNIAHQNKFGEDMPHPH
# HepG2 [10] = test: Antiproliferative activity against human HepG2 cells assessed as inhibition of cell growth measured after 72 hrs by MTT assay; type: functional, cell-based; conditions: HepG2, 72 h
# [11] = target: T1, Serine/threonine-protein kinase mTOR; test: Inhibition of mTOR (unknown origin) using U-Light-4E-BP1 peptide as a substrate in the presence of ATP incubated for 30 mins by Lance ultra assay
# Histone deacetylase 3 = Histone deacetylase 3 (Homo sapiens, UniProt O15379); test: Inhibition of HDAC3 (unknown origin) using Ac-peptide as a substrate pretreated for 15 mins followed by substrate addition
# HepG2 [12] = test: Induction of cell cycle arrest in human HepG2 cells assessed as accumulation of cells in S phase at 6 uM measured after 24 hrs by propidium iodide staining based flow cytometry analysis (reference value: 17 to 26.4%); type: functional
# HCT-116 = test: cells; type: functional, cell-based; conditions: Homo sapiens, HCT-116, 72 h
# Description: Antiproliferative activity against human HCT-116 cells assessed as inhibition of cell growth measured after 72 hrs by MTT assay
# HeLa = test: cells; type: functional, cell-based; conditions: Homo sapiens, 72 h
# Description: Antiproliferative activity against human HeLa cells assessed as inhibition of cell growth measured after 72 hrs by MTT assay
# HepG2 [13] = test: Induction of apoptosis in human HepG2 cells assessed as early apoptotic cells at 2.5 uM measured after 24 hrs by Annexin V-FITC/PI staining based flow cytometry analysis (Rvb= 6.15%); type: functional
# HepG2 [14] = test: Induction of apoptosis in human HepG2 cells assessed as live cells at 2.5 uM measured after 24 hrs by Annexin V-FITC/PI staining based flow cytometry analysis (Rvb= 84.6%); type: functional
# CNE-2 = test: cells; type: functional, cell-based; conditions: Homo sapiens, CNE-2, 72 h
# Description: Antiproliferative activity against human CNE-2 cells assessed as inhibition of cell growth measured after 72 hrs by MTT assay
# HepG2 [15] = test: Induction of apoptosis in human HepG2 cells assessed as late apoptotic cells at 5 uM measured after 24 hrs by Annexin V-FITC/PI staining based flow cytometry analysis (Rvb= […]); type: functional
# Sequence of Histone deacetylase 3 (O15379 whole entry): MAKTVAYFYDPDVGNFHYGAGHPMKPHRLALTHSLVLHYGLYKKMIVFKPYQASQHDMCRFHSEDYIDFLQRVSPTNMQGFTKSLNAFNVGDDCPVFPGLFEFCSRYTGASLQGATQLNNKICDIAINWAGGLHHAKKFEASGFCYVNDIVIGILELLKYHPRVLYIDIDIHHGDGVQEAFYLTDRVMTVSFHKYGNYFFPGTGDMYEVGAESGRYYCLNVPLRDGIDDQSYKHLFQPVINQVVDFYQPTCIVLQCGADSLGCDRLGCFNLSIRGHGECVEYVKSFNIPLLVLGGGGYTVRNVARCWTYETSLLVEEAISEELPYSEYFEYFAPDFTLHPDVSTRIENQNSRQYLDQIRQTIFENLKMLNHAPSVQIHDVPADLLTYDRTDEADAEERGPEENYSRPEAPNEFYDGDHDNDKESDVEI
# Sequence of Histone deacetylase 1 (Q13547 whole entry): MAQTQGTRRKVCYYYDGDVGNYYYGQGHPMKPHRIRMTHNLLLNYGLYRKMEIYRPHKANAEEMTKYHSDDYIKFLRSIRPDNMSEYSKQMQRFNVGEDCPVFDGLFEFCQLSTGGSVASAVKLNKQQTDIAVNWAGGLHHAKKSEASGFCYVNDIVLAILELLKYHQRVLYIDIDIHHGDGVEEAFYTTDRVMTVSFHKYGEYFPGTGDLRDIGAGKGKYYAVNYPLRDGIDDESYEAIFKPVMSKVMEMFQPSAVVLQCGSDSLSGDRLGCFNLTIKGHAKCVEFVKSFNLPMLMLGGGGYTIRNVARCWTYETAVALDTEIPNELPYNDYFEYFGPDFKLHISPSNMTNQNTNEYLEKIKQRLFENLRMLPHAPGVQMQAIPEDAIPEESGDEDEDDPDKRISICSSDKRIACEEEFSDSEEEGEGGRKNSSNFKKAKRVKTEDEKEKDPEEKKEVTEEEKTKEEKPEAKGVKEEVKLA
Compound,inhibition [1],Activity (HepG2 [2]),inhibition [3],Activity (HepG2 [4]),Activity (HepG2 [5]),Activity (HepG2 [6]),Activity (HepG2 [7]),IC50 (Histone deacetylase 1),IC50 (Bel-7402),Activity (HepG2 [8]),IC50 [9],IC50 (HepG2 [10]),IC50 [11],IC50 (Histone deacetylase 3),Activity (HepG2 [12]),IC50 (HCT-116),IC50 (HeLa),Activity (HepG2 [13]),Activity (HepG2 [14]),IC50 (CNE-2),other results
Nc1nc2cc(-c3nn(CCCCCCC(=O)NO)c4ncnc(N)c34)ccc2o1,99%,73.3%,Active,0.59%,14.8%,69.6%,42.2%,3.1 nM,> 50000 nM,0.15%,10.3 nM,1610 nM,7.67 nM,4.6 nM,7.78%,5390 nM,6410 nM,28.1%,63.7%,4360 nM,Activity (HepG2 [15]): 14.5%
Nc1ncnc2c1c(-c1cnc3[nH]ccc3c1)nn2CCCCCCCCC(=O)NO,97.7%,66.6%,Active,0.15%,19.4%,77.5%,62%,20 nM,18900 nM,0.56%,9.54 nM,3050 nM,92.3 nM,34 nM,11.5%,5460 nM,7470 nM,17.4%,69.7%,2270 nM,Activity (HepG2 [15]): 10.4%
